Experiments:
[1] = test system: Cryptococcus neoformans H99 ATCC 208821 type strain; assay: Antifungal MIC assay; type: cell-based; settings: initial CO-ADD dose-response screening; ≥80% growth inhibition
Description: (§1) For the fungal assays, both fungi (yeast) strains were cultured for 3 days on Yeast Extract-Peptone Dextrose (YPD; Becton Dickinson 242720) agar at 30 °C. A yeast suspension of 1 × 10^6 to 5 × 10^6 CFU/mL (as determined by OD530) was prepared from five colonies from the agar plates, subsequently diluted with Yeast Nitrogen Base media (YNB; Becton Dickinson 233520), and added to each well of the compound containing plates (384-well plates, NBS; Corning CLS3640), giving a final cell density of 2.5 × 10^3 CFU/mL and a total volume of 50 μL. Plates were covered and incubated at 35 °C for 36 h without shaking. […] MIC values were recorded as the lowest concentration at which the growth was inhibited by ≥80%, equivalent to ″optically clear-to-slightly hazy″ or MIC score of 0–1 as per CLSI guidelines M27 Reference Method for Broth Dilution Antifungal Susceptibility Testing of Yeasts. […] Fluconazole (Sigma F8929) was used as internal control on each plate for all strains. All compounds were tested as two technical replicates in two to four independent biological assays, n = 4–8 final data.

human red blood cells = type: cell-based; settings: initial CO-ADD screening, 1 h; 10% hemolysis
Description: Human whole blood (Australian Red Cross) was washed three times with 3 vol of 0.9% NaCl and resuspended in a concentration of 0.5 × 10^8 cells/mL, determined by a manual cell count in a Neubauer hemocytometer. […] After incubation, the plates were centrifuged at 1000g for 10 min to pellet cells and debris; 25 μL of the supernatant was then transferred to reading plates (384-well, polystyrene plated (PS), Corning CLS3680), with hemolysis determined by measuring the supernatant absorbance at […] (OD405) using cells without inhibitors as negative control and cells with 1% Triton X-100 (Sigma T8787) as positive control. […] Melittin (Sigma M2272) was used as internal control on each plate.

[2] = test system: Candida albicans ATCC 90028 NCCLS11; assay: Antifungal MIC assay; type: cell-based; settings: initial CO-ADD dose-response screening; ≥80% growth inhibition
Description: as §1, with “[…],” for “MIC values were recorded as the lowest concentration at which the growth was inhibited by ≥80%,”

[3] = test system: Escherichia coli ATCC 25922 FDA control strain; assay: CO-ADD antibacterial MIC assay; type: cell-based; settings: initial CO-ADD dose-response screening; ≥80% growth inhibition
Description: (§2) For the all the bacterial assays, each bacterial strain was cultured in cation-adjusted Mueller Hinton broth (CAMHB; Bacto Laboratories 212322) at 37 °C overnight. A sample of each culture was then diluted 40-fold in fresh CAMHB and incubated at 37 °C for 1.5–3 h. The resultant mid-log phase cultures were diluted with CAMHB (CFU/mL measured by OD600) and then added to each well of the compound-containing plates (384-well non-binding surface (NBS) plates; Corning CLS3640), giving a cell density of 5 × 10^5 CFU/mL and a total volume of 50 μL. Plates were covered and incubated at 37 °C for 18 h without shaking. Inhibition of bacterial growth was determined by measuring the absorbance at 600 nm (OD600) using media only as negative control and bacteria without inhibitors as positive control. MIC values were determined as the lowest concentration at which the growth was inhibited by ≥80% (equivalent to no visible growth by the eye). Colistin sulfate (Sigma C4461) and vancomycin HCl (Sigma 861987) were used as internal controls on each plate for Gram-negative and Gram-positive bacteria, respectively. All compounds were tested as two technical replicates in two independent biological assays, n = 4 final data.

[4] = test system: methicillin-resistant Staphylococcus aureus ATCC 43300; assay: CO-ADD antibacterial MIC assay; type: cell-based; settings: initial CO-ADD dose-response screening; ≥80% growth inhibition
Description: as §2

[5] = test system: Pseudomonas aeruginosa ATCC 27853 QC control strain; assay: CO-ADD antibacterial MIC assay; type: cell-based; settings: initial CO-ADD dose-response screening; ≥80% growth inhibition
Description: as §2

[6] = test system: Acinetobacter baumannii ATCC 19606 type strain; assay: CO-ADD antibacterial MIC assay; type: cell-based; settings: initial CO-ADD dose-response screening; ≥80% growth inhibition
Description: as §2

[7] = test system: HEK-293 human embryonic kidney cells ATCC CRL-1573; settings: initial CO-ADD screening, 20 h; for CC50: read-out: HEK CC50
Description: The cells were incubated together with the compounds for 20 h at 37 °C in 5% CO2. […] Tamoxifen (Sigma T5648) was used as internal control on each plate.

| SMILES | MIC Cn [1] | MIC Ca [2] | MIC Ec [3] | MIC MRSA (Sa) [4] | MIC Pa [5] | MIC Ab [6] | RBC HC10 (human red blood cells) | CC50 [7] [µM] | HEK CC50 [7] [µg/mL] |
| --- | --- | --- | --- | --- | --- | --- | --- | --- | --- |
| O=[N+]([O-])[O-].[Ag+] [AgNO3, reference compound] | 0.25 µg/mL | 0.25 µg/mL | 0.25 µg/mL | 2 µg/mL | 0.25 µg/mL | 0.25 µg/mL | 8.9 µg/mL |  | > 32 |
| Cc1cccc2[n+]1[Au-]([Cl])([Cl])[n+]1c(C)cccc1C(c1ccccc1)=C=C2c1ccccc1.[Cl-] [Au-S11] | 16 µg/mL | 4 µg/mL | 32 µg/mL | 16 µg/mL | > 32 µg/mL | > 32 µg/mL | > 32 µg/mL |  | > 32 |
| Cc1cccc(C2(c3ccccc3)[C]([Au-][Cl])=C(C(C)(C)C)c3cccc(C)[n+]32)n1 (centres unmarked) [Au-S15] | <= 0.25 μg/mL | <= 0.25 μg/mL | > 32 µg/mL | 2 µg/mL | 32 µg/mL | 32 µg/mL | > 32 µg/mL |  | > 32 |
| O=C([O][Eu]([O]C(=O)c1cc(F)ccc1F)[O]C(=O)c1cc(F)ccc1F)c1cc(F)ccc1F.c1ccc(-c2ccnc3c2ccc2c(-c4ccccc4)ccnc23)cc1 [Eu-S1] | 5 µM | > 20 µM | > 20 µM | 10 µM | > 20 µM | > 20 µM | > 20 µM | > 20 |  |
| Cc1cccc(C2(c3ccccc3)[C]([Au-][Cl])=C(c3ccccc3)c3cccc(C)[n+]32)n1 (centres unmarked) [Au-S14] | <= 0.25 μg/mL | <= 0.25 μg/mL | > 32 µg/mL | <= 0.25 μg/mL | > 32 µg/mL | 32 µg/mL | 23.7 µg/mL |  | 0.7 |

Second part, led by results:

| MIC Cn [1] | MIC Ca [2] | MIC Ec [3] | MIC MRSA (Sa) [4] | MIC Pa [5] | MIC Ab [6] | SMILES | RBC HC10 (human red blood cells) | CC50 [7] [µM] | HEK CC50 [7] [µg/mL] |
| --- | --- | --- | --- | --- | --- | --- | --- | --- | --- |
| 20 µM | 20 µM | > 20 µM | > 20 µM | > 20 µM | > 20 µM | O=C([O][Eu]([O]C(=O)c1ccccc1F)[O]C(=O)c1ccccc1F)c1ccccc1F.c1cnc2c(c1)ccc1cccnc12 [Eu-S6] | > 20 µM | 9.9 |  |
| 1 µg/mL | 16 µg/mL | > 32 µg/mL | 2 µg/mL | > 32 µg/mL | > 32 µg/mL | Cc1cccc2[n+]1[Pd-2]([Cl])([Cl])[n+]1c(C)cccc1C(c1ccccc1)=C=C2c1ccccc1 [HM_C1] | > 32 µg/mL |  | 1.0 |
| > 32 µg/mL | 32 µg/mL | > 32 µg/mL | > 32 µg/mL | > 32 µg/mL | > 32 µg/mL | Cc1cccc(C(=C=C(c2cccc(C)n2)C(C)(C)C)c2ccccc2)n1.[Cl][Pt]([Cl])([Cl])[Cl] [HM_C5] | > 32 µg/mL |  | > 32 |
| 20 µM | > 20 µM | > 20 µM | > 20 µM | > 20 µM | > 20 µM | Nc1cc2cccnc2c2ncccc12.O=C([O][Eu]([O]C(=O)c1ccccc1F)[O]C(=O)c1ccccc1F)c1ccccc1F [Eu-S4] | 1.2 µM | 3.3 |  |
| 5 µM | 20 µM | > 20 µM | 10 µM | > 20 µM | > 20 µM | O=C([O][Eu]([O]C(=O)c1ccccc1F)[O]C(=O)c1ccccc1F)c1ccccc1F.c1ccc(-c2ccnc3c2ccc2c(-c4ccccc4)ccnc23)cc1 [Eu-S3] | > 20 µM | 14.7 |  |

Reference: PMC9597602, “Metal Complexes as Antifungals? From a Crowd-Sourced Compound Library to the First In Vivo Experiments” (JACS Au, 2022)
